Where “and” joins values, the source holds several entries; their conditions need not be identical. Equal entries are not always repeated.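 1) Cells in 96-well plates. 2) Compound, 48 h, 5 concentrations. 3) Linear interpolation between surrounding doses. 4) Unreached endpoint = highest concentration. Abbreviation: GI50, concentration required for 50% inhibition of growth. TGI is the concentration that stops growth completely.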
Tests used:
Assay in all cases: NCI tumour cell line growth inhibition, 48 h
M19-MEL melanoma = test system: M19-MEL melanoma
PC-3 prostate = test system: PC-3 prostate
MDA-N = test system: MDA-N
MDA-MB-435 = test system: MDA-MB-435
NCI/ADR-RES ovarian = test system: NCI/ADR-RES ovarian
RXF-631 renal = test system: RXF-631 renal
LXFL 529 NSCLC = test system: LXFL 529 NSCLC
SNB-78 CNS = test system: SNB-78 CNS
MCF7 breast = test system: MCF7 breast

SMILES	TGI (M19-MEL melanoma)	TGI (RXF-631 renal)	TGI (LXFL 529 NSCLC)	TGI (SNB-78 CNS)	other results
CC(=O)NNc1nc(C)c(C(=O)NNC(=O)C(=O)Nc2nc3ccc([N+](=O)[O-])cc3s2)s1	> 100 µM	> 100 µM	> 100 µM	> 100 µM	TGI (PC-3 prostate): > 100 µM; TGI (MDA-N): > 100 µM; TGI (MDA-MB-435): > 100 µM; TGI (NCI/ADR-RES ovarian): > 100 µM; TGI (MCF7 breast): > 100 µM
CC1=C(C(=O)Nc2ccccc2C)C(/C=C/c2ccccc2)C(C(=O)Nc2ccccc2C)=C(C)N1	> 100 µM	> 100 µM	> 100 µM	> 100 µM	
CNC(SC)=C1C(=O)OC(C)(C)OC1=O	> 100 µM		> 100 µM	> 100 µM	
COc1cc2cnc3c4ccccc4ccc3c2cc1OC	> 100 µM		> 100 µM	> 100 µM	
CCCCCCCCCCCCCC(=O)OCC1OC(=O)CC1O (stereo unspecified)		> 100 µM	> 100 µM	> 100 µM	
CSc1c(C)c(C)nn1-c1ccccc1		> 100 µM	> 100 µM	> 100 µM	
Cc1ccc(S(=O)(=O)N/N=C(\c2nc3ccc([N+](=O)[O-])cc3[nH]c2=O)C(O)c2ccccc2Cl)cc1 (stereo unspecified)	> 100 µM	> 100 µM	> 100 µM	> 100 µM	
Cc1cc(N(CCC#N)CCC#N)ccc1/C=C1N=C(/C=C/c2ccccc2)OC(=O)N\1	> 100 µM		> 100 µM	> 100 µM	
C[n+]1c2ccccc2cc2c(CNC(CCCN=C(N)N)C(=O)O)cccc21 (stereo unspecified)	2.26 µM and 17 µM	12.6 µM	2.12 µM and 2.14 µM	7.93 µM and 35.5 µM	GI50 (M19-MEL melanoma): 4.23 µM; GI50 (LXFL 529 NSCLC): 0.659 µM; GI50 (SNB-78 CNS): 5.8 µM
NC(N)=NS(=O)(=O)c1ccc(NC(=O)c2cccc3c(Nc4ccc(S(N)(=O)=O)cc4)c4ccccc4nc23)cc1	> 100 µM		> 100 µM	> 100 µM	
O=c1c(Cl)c(Cl)cnn1CCc1ccncc1	30.8 µM		29.8 µM	49.8 µM	
CC1(C)CC[C@H](C2=CC(=O)c3c(O)ccc(O)c3C2=O)O1		3.98 µM			TGI (PC-3 prostate): 7.34 µM and 4.16 µM; TGI (MDA-N): 1.6 µM and 3.78 µM; GI50 (MDA-MB-435): 0.33 µM; TGI (MDA-MB-435): 0.837 µM; TGI (NCI/ADR-RES ovarian): 12 µM; TGI (MCF7 breast): 0.739 µM and 0.337 µM
Cc1ccccc1Nc1nc2c(s1)C(=O)c1ccccc1C2=O	3.79 µM		14.8 µM	> 64.8 µM	TGI (PC-3 prostate): 7.95 µM; TGI (MDA-N): 3.37 µM; TGI (MCF7 breast): 4.36 µM
CC1(Cc2ccccc2)NC(=S)NC1=O (stereo unspecified)	> 100 µM	> 100 µM	> 100 µM	> 100 µM	
Cc1cc2c(Br)cc(Br)c(O)c2nc1C(=O)c1ccccc1	32.2 µM		80.6 µM	> 100 µM	TGI (PC-3 prostate): > 100 µM; TGI (MDA-N): 96.3 µM; TGI (MDA-MB-435): > 100 µM; TGI (NCI/ADR-RES ovarian): > 100 µM; TGI (MCF7 breast): > 100 µM
Cc1nnc(N/N=C(/C(=O)C(C#N)c2ccccc2)C(C#N)c2ccccc2)n1N (stereo unspecified)	25.2 µM		10.6 µM	> 90 µM	
CC1(c2ccccc2)CC(c2ccccc2)=NO1 (stereo unspecified)	> 100 µM		> 100 µM	> 100 µM	
CC(C)c1ccccc1NC(=O)/C(Cl)=C1/Sc2ccccc2NC1=O	> 100 µM	> 100 µM	> 100 µM	> 100 µM	
O=C/C(=C(/Cl)c1ccc(O)cc1)c1ccccc1	42.1 µM	> 31.6 µM	59.9 µM	> 82.9 µM	
O=C1C2=C(c3ccccc31)C(c1ccccc1Cl)N1C(=O)CCSC1=N2 (stereo unspecified)	> 100 µM	> 100 µM			
Cl[Si]1(Cl)Oc2ccccc2O[Si](Cl)(Cl)Oc2ccccc2O1	25.3 µM	> 100 µM			
NC(=O)/C=C/C(=O)O	> 5000 µM		> 5000 µM	> 5000 µM	
CCOC(=O)c1ccc(N[C@@H]2c3cc4c(cc3C(C3=CC(=O)C(=O)C(OC)=C3)[C@H]3C(=O)OCC32)OCO4)cc1 (stereo partly specified)	36.4 µM	10 µM	29.4 µM	> 54.6 µM	
CCN(CC)CC(=O)N1CCc2c([nH]c3ccccc23)C1c1cccnc1 (stereo unspecified)	> 100 µM	> 100 µM	> 100 µM	> 100 µM	
C=CCC1[C@@H](C(C)(C)C(C(C)=O)C(=O)C(=O)OC)OC(C(C)(C)C)N1C(=O)OC (stereo partly specified)	> 100 µM	> 100 µM		> 100 µM	
O=C(NC12CC3CC(CC(C3)C1)C2)C(=O)c1c[nH]c2ccc(Cl)cc12	> 100 µM		> 100 µM	> 100 µM	
Cc1ccc2nc3c(Cl)c(C)c(=O)cc-3sc2c1	> 100 µM		> 100 µM	> 100 µM	GI50 (M19-MEL melanoma): 46.4 µM; GI50 (LXFL 529 NSCLC): 62.9 µM; GI50 (SNB-78 CNS): 54 µM

From PubChem BioAssay (NCI)
